# According to ChEMBL document CHEMBL1127182, “DNA gyrase inhibitory and antibacterial activity of some flavones(1)” (Bioorg Med Chem Lett, 1993):
# Tested on: Escherichia coli
# Test: Tested for antibacterial activity as minimum inhibitory concentration against Escherichia coli KL-16 in the absence of polymyxin B nonapeptide (PBMN) at 0 ug/mL
# Format: functional
# Conditions: not given
row,Structure (SMILES),MIC [µg/mL]
1,COc1cccc(-c2cc(=O)c3c(O)cc(O)cc3o2)c1,> 125
2,O=c1c(O)c(-c2cc(O)cc(O)c2)oc2cc(O)cc(O)c12,> 125
3,"O=c1cc(-c2ccccc2)oc2c(O)c(O)ccc12 [7,8-DIHYDROXYFLAVONE]",> 125
4,O=c1cc(-c2ccc(O)cc2)oc2cc(O)cc(O)c12 [APIGENIN],> 125
5,O=c1cc(-c2ccccc2)oc2cc(O)cc(O)c12 [CHRYSIN],> 125
6,O=c1oc2c(O)c(O)cc3c(=O)oc4c(O)c(O)cc1c4c23 [ELLAGIC ACID],> 125

# Further lines, results first:
row,MIC [µg/mL],Structure (SMILES)
1,> 125,COc1cc2oc(-c3ccccc3)cc(=O)c2c(O)c1O
2,> 125,COc1cc(-c2oc3cc(O)cc(O)c3c(=O)c2O)cc(OC)c1OC

# Tested on: Escherichia coli
# Test: Tested for antibacterial activity as minimum inhibitory concentration against Escherichia coli KL-16 in the presence of polymyxin B nonapeptide (PBMN) at 1 ug/mL
# Format: functional
# Conditions: not given
row,Structure (SMILES),MIC [µg/mL]
1,COc1cccc(-c2cc(=O)c3c(O)cc(O)cc3o2)c1,> 125
2,O=c1c(O)c(-c2cc(O)cc(O)c2)oc2cc(O)cc(O)c12,31.2
3,"O=c1cc(-c2ccccc2)oc2c(O)c(O)ccc12 [7,8-DIHYDROXYFLAVONE]",62.5
4,O=c1cc(-c2ccc(O)cc2)oc2cc(O)cc(O)c12 [APIGENIN],> 125
5,O=c1cc(-c2ccccc2)oc2cc(O)cc(O)c12 [CHRYSIN],> 125
6,O=c1oc2c(O)c(O)cc3c(=O)oc4c(O)c(O)cc1c4c23 [ELLAGIC ACID],7.8

# The next lines start with the values.
row,MIC [µg/mL],Structure (SMILES)
1,> 125,COc1cc2oc(-c3ccccc3)cc(=O)c2c(O)c1O
2,> 125,COc1cc(-c2oc3cc(O)cc(O)c3c(=O)c2O)cc(OC)c1OC

# Tested on: Escherichia coli
# Test: Tested for antibacterial activity as minimum inhibitory concentration against Escherichia coli-ss in the absence of polymyxin B nonapeptide (PBMN) at 0 ug/mL
# Format: functional
# Conditions: Escherichia coli; read-out: MIC
row,Structure (SMILES),MIC [µg/mL]
1,COc1cccc(-c2cc(=O)c3c(O)cc(O)cc3o2)c1,> 125
2,O=c1c(O)c(-c2cc(O)cc(O)c2)oc2cc(O)cc(O)c12,125
3,"O=c1cc(-c2ccccc2)oc2c(O)c(O)ccc12 [7,8-DIHYDROXYFLAVONE]",125
4,O=c1cc(-c2ccc(O)cc2)oc2cc(O)cc(O)c12 [APIGENIN],> 125
5,O=c1cc(-c2ccccc2)oc2cc(O)cc(O)c12 [CHRYSIN],> 125
6,O=c1oc2c(O)c(O)cc3c(=O)oc4c(O)c(O)cc1c4c23 [ELLAGIC ACID],> 125

# Second part, the compound after the results:
row,MIC [µg/mL],Structure (SMILES)
1,> 125,COc1cc2oc(-c3ccccc3)cc(=O)c2c(O)c1O
2,> 125,COc1cc(-c2oc3cc(O)cc(O)c3c(=O)c2O)cc(OC)c1OC

# Tested on: Escherichia coli
# Test: Tested for antibacterial activity as minimum inhibitory concentration against Escherichia coli-ss in the presence of polymyxin B nonapeptide (PBMN) at 1 ug/mL
# Format: functional
# Conditions: Escherichia coli; read-out: MIC
row,Structure (SMILES),MIC [µg/mL]
1,COc1cccc(-c2cc(=O)c3c(O)cc(O)cc3o2)c1,> 125
2,O=c1c(O)c(-c2cc(O)cc(O)c2)oc2cc(O)cc(O)c12,3.9
3,"O=c1cc(-c2ccccc2)oc2c(O)c(O)ccc12 [7,8-DIHYDROXYFLAVONE]",7.8
4,O=c1cc(-c2ccc(O)cc2)oc2cc(O)cc(O)c12 [APIGENIN],7.8
5,O=c1cc(-c2ccccc2)oc2cc(O)cc(O)c12 [CHRYSIN],> 125
6,O=c1oc2c(O)c(O)cc3c(=O)oc4c(O)c(O)cc1c4c23 [ELLAGIC ACID],2

# Continued, values first:
row,MIC [µg/mL],Structure (SMILES)
1,> 125,COc1cc2oc(-c3ccccc3)cc(=O)c2c(O)c1O
2,> 125,COc1cc(-c2oc3cc(O)cc(O)c3c(=O)c2O)cc(OC)c1OC

# Molecular target: DNA gyrase (Escherichia coli, UniProt P0AES4+P0AES6)
# Test: In vitro antibacterial activity was determined as inhibitory concentration causing 50% DNA-gyrase supercoiling inhibition (SCI)
# Format: protein-complex assay
# Conditions: not given
row,Structure (SMILES),IC50 [µM]
1,COc1cccc(-c2cc(=O)c3c(O)cc(O)cc3o2)c1,> 1760
2,O=c1c(O)c(-c2cc(O)cc(O)c2)oc2cc(O)cc(O)c12,1380
3,"O=c1cc(-c2ccccc2)oc2c(O)c(O)ccc12 [7,8-DIHYDROXYFLAVONE]",351
4,O=c1cc(-c2ccc(O)cc2)oc2cc(O)cc(O)c12 [APIGENIN],250
5,O=c1cc(-c2ccccc2)oc2cc(O)cc(O)c12 [CHRYSIN],> 1970
6,O=c1oc2c(O)c(O)cc3c(=O)oc4c(O)c(O)cc1c4c23 [ELLAGIC ACID],10.9

# The remaining lines, values ahead:
row,IC50 [µM],Structure (SMILES)
1,> 1760,COc1cc2oc(-c3ccccc3)cc(=O)c2c(O)c1O
2,> 1390,COc1cc(-c2oc3cc(O)cc(O)c3c(=O)c2O)cc(OC)c1OC

# Tested on: Stenotrophomonas maltophilia
# Test: Tested for antibacterial activity as minimum inhibitory concentration against Pseudomonas maltophilia 1057 in the presence of polymyxin B nonapeptide (PBMN) at 0 ug/mL
# Format: functional
# Conditions: not given
row,Structure (SMILES),MIC [µg/mL]
1,COc1cccc(-c2cc(=O)c3c(O)cc(O)cc3o2)c1,> 125
2,O=c1c(O)c(-c2cc(O)cc(O)c2)oc2cc(O)cc(O)c12,> 125
3,"O=c1cc(-c2ccccc2)oc2c(O)c(O)ccc12 [7,8-DIHYDROXYFLAVONE]",> 125
4,O=c1cc(-c2ccc(O)cc2)oc2cc(O)cc(O)c12 [APIGENIN],> 125
5,O=c1cc(-c2ccccc2)oc2cc(O)cc(O)c12 [CHRYSIN],> 125
6,O=c1oc2c(O)c(O)cc3c(=O)oc4c(O)c(O)cc1c4c23 [ELLAGIC ACID],> 125

# The remaining lines, values ahead:
row,MIC [µg/mL],Structure (SMILES)
1,> 125,COc1cc2oc(-c3ccccc3)cc(=O)c2c(O)c1O
2,> 125,COc1cc(-c2oc3cc(O)cc(O)c3c(=O)c2O)cc(OC)c1OC

# Tested on: Stenotrophomonas maltophilia
# Test: Tested for antibacterial activity as minimum inhibitory concentration against Pseudomonas maltophilia 1057 in the presence of polymyxin B nonapeptide (PBMN) at 1 ug/mL
# Format: functional
# Conditions: not given
row,Structure (SMILES),MIC [µg/mL]
1,COc1cccc(-c2cc(=O)c3c(O)cc(O)cc3o2)c1,> 125
2,O=c1c(O)c(-c2cc(O)cc(O)c2)oc2cc(O)cc(O)c12,> 125
3,"O=c1cc(-c2ccccc2)oc2c(O)c(O)ccc12 [7,8-DIHYDROXYFLAVONE]",125
4,O=c1cc(-c2ccc(O)cc2)oc2cc(O)cc(O)c12 [APIGENIN],> 125
5,O=c1cc(-c2ccccc2)oc2cc(O)cc(O)c12 [CHRYSIN],> 125
6,O=c1oc2c(O)c(O)cc3c(=O)oc4c(O)c(O)cc1c4c23 [ELLAGIC ACID],> 125

# Other lines, results leading:
row,MIC [µg/mL],Structure (SMILES)
1,> 125,COc1cc2oc(-c3ccccc3)cc(=O)c2c(O)c1O
2,> 125,COc1cc(-c2oc3cc(O)cc(O)c3c(=O)c2O)cc(OC)c1OC

# Tested on: Salmonella typhimurium
# Test: Tested for antibacterial activity as minimum inhibitory concentration against Salmonella Typhimurium 701 in the absence of polymyxin B nonapeptide (PBMN) at 0 ug/mL
# Format: functional, Salmonella enterica subsp. enterica serovar Typhimurium
# Conditions: Salmonella enterica
row,Structure (SMILES),MIC [µg/mL]
1,COc1cccc(-c2cc(=O)c3c(O)cc(O)cc3o2)c1,> 125
2,O=c1c(O)c(-c2cc(O)cc(O)c2)oc2cc(O)cc(O)c12,> 125
3,"O=c1cc(-c2ccccc2)oc2c(O)c(O)ccc12 [7,8-DIHYDROXYFLAVONE]",> 125
4,O=c1cc(-c2ccc(O)cc2)oc2cc(O)cc(O)c12 [APIGENIN],> 125
5,O=c1cc(-c2ccccc2)oc2cc(O)cc(O)c12 [CHRYSIN],> 125
6,O=c1oc2c(O)c(O)cc3c(=O)oc4c(O)c(O)cc1c4c23 [ELLAGIC ACID],> 125

# Continued, values first:
row,MIC [µg/mL],Structure (SMILES)
1,> 125,COc1cc2oc(-c3ccccc3)cc(=O)c2c(O)c1O
2,> 125,COc1cc(-c2oc3cc(O)cc(O)c3c(=O)c2O)cc(OC)c1OC

# Tested on: Staphylococcus epidermidis
# Test: Tested for antibacterial activity as minimum inhibitory concentration against Staphylococcus epidermidis strain OC2603
# Format: functional
# Conditions: not given
row,Structure (SMILES),MIC [µg/mL]
1,COc1cccc(-c2cc(=O)c3c(O)cc(O)cc3o2)c1,> 125
2,O=c1c(O)c(-c2cc(O)cc(O)c2)oc2cc(O)cc(O)c12,500
3,"O=c1cc(-c2ccccc2)oc2c(O)c(O)ccc12 [7,8-DIHYDROXYFLAVONE]",31.2
4,O=c1cc(-c2ccc(O)cc2)oc2cc(O)cc(O)c12 [APIGENIN],> 125
5,O=c1cc(-c2ccccc2)oc2cc(O)cc(O)c12 [CHRYSIN],> 125
6,O=c1oc2c(O)c(O)cc3c(=O)oc4c(O)c(O)cc1c4c23 [ELLAGIC ACID],> 125

# The remaining lines, values ahead:
row,MIC [µg/mL],Structure (SMILES)
1,> 125,COc1cc2oc(-c3ccccc3)cc(=O)c2c(O)c1O
2,> 125,COc1cc(-c2oc3cc(O)cc(O)c3c(=O)c2O)cc(OC)c1OC

# Tested on: Staphylococcus aureus
# Test: Tested for antibacterial activity as minimum inhibitory concentration against Staphylococcus aureus strain OC6538
# Format: functional
# Conditions: not given
row,MIC [µg/mL],Structure (SMILES)
1,62.5,"O=c1cc(-c2ccccc2)oc2c(O)c(O)ccc12 [7,8-DIHYDROXYFLAVONE]"

# Same assay, conditions: Staphylococcus aureus; read-out: MIC
row,Structure (SMILES),MIC [µg/mL]
1,COc1cccc(-c2cc(=O)c3c(O)cc(O)cc3o2)c1,> 125
2,O=c1c(O)c(-c2cc(O)cc(O)c2)oc2cc(O)cc(O)c12,500
3,O=c1cc(-c2ccc(O)cc2)oc2cc(O)cc(O)c12 [APIGENIN],> 125
4,O=c1cc(-c2ccccc2)oc2cc(O)cc(O)c12 [CHRYSIN],> 125
5,O=c1oc2c(O)c(O)cc3c(=O)oc4c(O)c(O)cc1c4c23 [ELLAGIC ACID],> 125

# Other lines, results leading:
row,MIC [µg/mL],Structure (SMILES)
1,> 125,COc1cc2oc(-c3ccccc3)cc(=O)c2c(O)c1O
2,> 125,COc1cc(-c2oc3cc(O)cc(O)c3c(=O)c2O)cc(OC)c1OC

# Tested on: Salmonella typhimurium
# Test: Tested for antibacterial activity as minimum inhibitory concentration against Salmonella Typhimurium 701 in the presence of polymyxin B nonapeptide (PBMN) at 1 ug/mL
# Format: functional, Salmonella enterica subsp. enterica serovar Typhimurium
# Conditions: Salmonella enterica
row,MIC [µg/mL],Structure (SMILES)
1,15.6,"O=c1cc(-c2ccccc2)oc2c(O)c(O)ccc12 [7,8-DIHYDROXYFLAVONE]"

# Same assay, conditions: Salmonella enterica; read-out: MIC
row,Structure (SMILES),MIC [µg/mL]
1,COc1cccc(-c2cc(=O)c3c(O)cc(O)cc3o2)c1,> 125
2,O=c1c(O)c(-c2cc(O)cc(O)c2)oc2cc(O)cc(O)c12,7.8
3,O=c1cc(-c2ccc(O)cc2)oc2cc(O)cc(O)c12 [APIGENIN],15.6
4,O=c1cc(-c2ccccc2)oc2cc(O)cc(O)c12 [CHRYSIN],> 125
5,O=c1oc2c(O)c(O)cc3c(=O)oc4c(O)c(O)cc1c4c23 [ELLAGIC ACID],31.2

# Next, values leading:
row,MIC [µg/mL],Structure (SMILES)
1,> 125,COc1cc2oc(-c3ccccc3)cc(=O)c2c(O)c1O
2,> 125,COc1cc(-c2oc3cc(O)cc(O)c3c(=O)c2O)cc(OC)c1OC
